Source: patent US20250215016A1, “ISOXAZOLE-HETEROCYCLIC DERIVATIVE, PHARMACEUTICAL COMPOSITION AND USE” (SHANGHAI SIMR BIOTECHNOLOGY CO., LTD, priority 2022, published 2025)
Values after ≈ are worked out from the molar mass of the structure shown.

Assays:
[1] = biological target: human α2β3γ2 receptor (α2-GABAA receptor) (Homo sapiens (Human), UniProt P18507+P47869); assay: Radioligand (3H-flunitrazepam) competition binding assay, BZD site; α2 vs α5 binding selectivity; conditions: ratio of Ki at α2β3γ2 to Ki at α5β3γ2
From the text: α, β and γ subunits are essential for the formation of a complete functional GABAA receptor. In this example, HEK293 cell strains stably expressing human α5-GABAA receptor (comprising α5β3γ2 subunit) and α2-GABAA receptor (comprising α2β3γ2 subunit) were constructed and screened, respectively, by liposome transfection method (Felgner, P. L., et al., Proceedings of the National Academy of Sciences, 1987, 84:7413-7417). The specific subunit protein sequences are as follows: α5 subunit (protein sequence can be found in GenBank accession number: NM_000810.3); α2 subunit (protein sequence can be found in GenBank accession number: NM_000807.4); β3 subunit (protein sequence can be found in GenBank accession number: NM_000814.5); γ2 subunit (protein sequence can be found in GenBank accession number: NM_000816.3).
The above cell lines were subcultured. Amplification of α5β3γ2-HEK293 and α2β3γ2-HEK293 cells was used to test the affinity of the compounds to benzodiazepine site (BZD) of the GABAA receptor. During the passage of α5β3γ2-HEK293 cells, some of the suspended cells were spread on a glass slide pretreated with Poly-D-Lysine for electrophysiological testing.
Flunitrazepam is a non-specific reagent that binds to the BZD site efficiently. The affinity of the compounds to the BZD sites of the human α5β3γ2 and α2β3γ2 receptors can be determined by competing the compound with ^3H-flunitrazepam (isotope ^3H-labeled flunitrazepam) for binding to these two receptors.
Membrane preparation: HEK293 cells stably expressing human α5β3γ2 receptor or α2β3γ2 receptor were collected, suspended in 50 mM Tris-HCl buffer (pH=7.4), homogenized on ice by a homogenizer for 20 seconds 10 times, and centrifuged at 4° C., 1000 g for 10 min. The supernatant was collected, and the above steps were repeated. The supernatant was centrifuged (33800 g; centrifuge purchased from Thermo, rotor model: A27-8×50) at 4° C. for 60 min, and the precipitate was resuspended in Tris buffer (50 mM Tris-HCl, 10 mM MgCl2, 0.5 mM EDTA, 10% glycerol). The precipitate was the cell membrane. Protein content was determined by BCA (Bicinchoninic Acid) method (BCA kit from Pierce (Annoron)). The cell membrane was prepared into 1 ml aliquot and stored at −80° C.
Radioligand competition binding assay: the assay was carried out in a 200 μL system (96-well plate from Agilent) with 100 μL of cell membrane. The concentration of ^3H-flunitazepam (from PerkinElmer, lot: NET567250 UC) was 1 nM and the concentration of test compound was in the range 1×10^−5-10^−6 M. Flumazenil (from Tocris; lot: 1318) was used as a control. 1 μL of 2 mM flumazenil (final concentration 10 μM) was added to the Low signal control well (Low control, LC) and 1 μL of DMSO (from Sigma aldrich, lot: 472301) was added to the High signal control well (High control, HC). The final target membrane protein concentration was 5 μg/well. All test compound sample stocks were 10 mM DMSO solutions. The working concentration of the samples is to dilute all samples with DMSO to 0.2 mM, and then perform 4-fold continuous gradient dilution for a total of 8 concentration gradients. The 96-well plate was sealed with a plate sealing membrane and then incubated on a shaker at room temperature for 1 hour. Meanwhile, GF/C filter plate was soaked with a plate soaking buffer (0.3% PEI, polyethyleneimine, purchased from Sigma aldrich, model: P314, stored at 4° C.) for at least 0.5 hours. After completion of binding incubation, the cells were collected with a cell collector onto the GF/C filter plate and washed four times with a plate washing buffer (50 mM Tris-HCl, pH 7.4, stored at 4° C.). […]

[2] = biological target: human α5β3γ2 receptor (α5-GABAA receptor) (Homo sapiens (Human), UniProt P18507+P31644); assay: Radioligand (3H-flunitrazepam) competition binding assay, BZD site; conditions: 3H-flunitrazepam 1 nM; HEK293 membranes expressing human α5β3γ2
Outline: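 Membranes from HEK293 cells stably expressing human α2β3γ2 or α5β3γ2 (5 μg protein/well) incubated 1 h at room temperature with 1 nM ^3H-flunitrazepam and 8-point 4-fold compound dilutions; nonspecific binding defined with 10 μM flumazenil. Filter-bound radioactivity counted; Ki derived from fitted IC50.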

α5-GABAA receptor [3] = biological target: α5-GABAA receptor (Homo sapiens (Human), UniProt P18507+P31644); assay: Whole-cell patch clamp electrophysiology, inverse regulation activity in α5β3γ2-HEK293 cells; format: cell-based; conditions: compound 100 nM; GABA 0.05-0.06 μM (about EC7-8); clamped at −60 mV; read-out: Inverse regulation efficiency to α5-GABAA receptor
Outline: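 HEK293 cells expressing α5β3γ2 recorded whole-cell at −60 mV holding potential, GABA 0.05-0.06 μM (about EC7-8) applied, then compound at 100 nM final with GABA. pH 7.4 extracellular, CsCl-based pipette solution. Inverse regulation efficiency = (Itreatment−Igaba)/(Igaba−Iprebaseline)×100%.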

[4] = Thermodynamic solubility in simulated intestinal fluid (FaSSIF); format: physicochemical; conditions: simulated intestinal fluid (FaSSIF), thermodynamic from solid, 37° C., 1000 rpm
Method: 50 mM of phosphate buffer, pH=7.4:0.39 g of NaH2PO4·2H2O, 1.4025 g of Na2HPO4 were weighed, placed into an Erlenmeyer flask, dissolved with the addition of 240 ml of water, homogenously mixed, adjusted to pH 7.4 with 10 M NaOH solution, transferred into a 250 ml volumetric flask and diluted with water to the scale.
Simulated intestinal fluid FaSSIF: 54.76 mg of FaSSIF-V2 (Biorelevant, batch. V2FAS-0619-A, lot. V2FAS01) was weighed, and added to 15 ml of buffer, and after dissolution, the solution was made up to 30 ml and left to stand at room temperature for 1 hour for use.
Waters e2695 HPLC high performance liquid chromatography, Mettler XSE105 analytical balance.
Stock solution containing 10 mM of each test compound was formulated using DMSO, diluted into […] standard curve solution using diluent (ACN:PB buffer with a volume ratio of 50:50), and tested by HPLC to obtain a standard curve of concentration vs peak area of each test compound.
Thermodynamic solubility in simulated intestinal fluid (TS in FaSSIF). About 0.3 mg of each sample (test compound) was weighed, added into 1.5 mL of FaSSIF solution, two samples in parallel, shaken at 1000 rpm and 37° C. for 4 hours, and filtered, 1 mL of primary filtrate was discarded, then 400 μL of subsequent filtrate was taken, and tested by using a high performance liquid chromatograph (UV).

α5-GABAA receptor [5] = biological target: α5-GABAA receptor (Homo sapiens (Human), UniProt P31644); conditions: highest concentration of L-655,708; GABA 1 μM; cited from earlier work

Structure (SMILES) | Selectivity α2 ki/α5 ki [1] [folds] | Ki [2] [nM] | inhibition at 0.1 µM (α5-GABAA receptor [3]) [%] | solubility thermodynamic at 4 h [4] [µg/mL] | Inhibition of GABA-induced current (α5-GABAA receptor [5]) [%]
Cc1onc(-c2ccc(F)cc2)c1COc1ccc(-c2nnc3n2CCCOC3)nn1 [Compound 21, 3-(6-((3-(4-fluorophenyl)-5-methylisoxazol-4-yl)methoxy)pyridazin-3-yl)-6,7-dihydro-5H,9H-[1,2,4]triazolo[3,4-c][1,4]oxazepane] | 51 | 0.91 | 46 |  | 
CC(=O)N1CCn2c(nnc2-c2ccc(OCc3c(-c4ccc(F)cc4)noc3C)nc2)C1 [Compound 30, 1-(3-(6-((3-(4-fluorophenyl)-5-methylisoxazol-4-yl)methoxy)pyridin-3-yl)-5,6-dihydro-[1,2,4]triazolo[4,3-a]pyrazin-7(8H)-yl)ethan-1-one] |  | 9.86 | 41 | 191 (≈ 426 µM) | 
Cc1onc(-c2ccc(F)cc2)c1COc1ccc(-c2nnc3n2CCN(S(C)(=O)=O)C3)cn1 [Compound 31, 3-(4-fluorophenyl)-5-methyl-4-(((5-(7-(methylsulfonyl)-5,6,7,8-tetrahydro-[1,2,4]triazolo[4,3-a]pyrazin-3-yl)pyridin-2-yl)oxy)methyl)isoxazole] |  |  |  | 32.9 (≈ 67.8 µM) | 
Cc1onc(-c2ccc(F)cc2)c1COc1ccc(N2CCn3ccnc3C2)nn1 [Compound 35, 4-(((6-(5,6-dihydroimidazo [1,2-a]pyrazin-7(8H)-yl)pyridazin-3-yl)oxy)methyl)-3-(4-fluorophenyl)-5-methylisoxazole] | 35.8 | 1.44 | 49 |  | 
Cc1onc(-c2ccc(F)cc2)c1COc1ccc(N2CCn3c(C)nnc3C2=O)nn1 [Compound 36, 7-(6-((3-(4-fluorophenyl)-5-methylisoxazol-4-yl)methoxy)pyridazin-3-yl)-3-methyl-6,7-dihydro-[1,2,4]triazolo[4,3-a]pyrazin-8(H)-one] | 46.9 | 3.39 | 45 |  | 
CCOC(=O)c1ncn2c1[C@@H]1CCCN1C(=O)c1cc(OC)ccc1-2 [L-655,708] |  |  |  |  | 15
Cc1noc(-c2ccc(OCc3c(-c4ccccc4)noc3C)nc2)n1 [WO2009071476, Example 245, reference compound] |  |  |  | 0.9 (≈ 2.58 µM) | 
